{
  "source": "ChEMBL document CHEMBL5661943",
  "about": "“ASAP - In vitro antiviral effect” (2024)",
  "key": {"[1]": {"tested_on": "Zika virus", "test": "EC50 is reported via analysis of immunofluorescence staining. The assay has been performed by Icahn School of Medicine at Mount Sinai.", "assay_type": "functional, organism-based, Chlorocebus sabaeus, VeroE6/TMPRSS2", "conditions": "Baseline response 0 %, P-gp concentration 2 uM, P-gp inhibitor Elacidar"}, "[2]": {"tested_on": "dengue virus type 2", "test": "(§1) Functional immunofluorescence assay to measure dose dependent changes in antiviral-drug inhibitory efficacy against Dengue virus type 2 Thailand/16681/84 in Vero E6/TMPRSS2 cells (cotreated with P-gp inhibitor, Elacridar). Cells are treated with antiviral candidates that are serially diluted, following infection, cells are fixed. EC50 is reported via analysis of immunofluorescence staining. The assay has been performed by Icahn School of Medicine at Mount Sinai.", "assay_type": "organism-based, Chlorocebus sabaeus, VeroE6/TMPRSS2"}, "[3]": {"tested_on": "Zika virus", "test": "(§2) Functional CPE-based assay to measure dose dependent changes in antiviral-drug inhibitory efficacy against Zika virus MR766 in Vero E6 miRFP670 cells. Cells are treated with antiviral candidates that are serially diluted. EC50 is reported via analysis of MTS assay as a readout of CPE. The assay has been performed by KU Leuven.", "assay_type": "organism-based, Chlorocebus sabaeus, Vero C1008", "conditions": "Maximum response 100 %"}, "[4]": {"tested_on": "Zika virus", "test": "as §1, with “Zika” for “Dengue”, “PRVABC59” for “type 2 Thailand/16681/84”, “cells.” for “cells (cotreated with P-gp inhibitor, Elacridar).”", "assay_type": "organism-based, Chlorocebus sabaeus"}, "[5]": {"tested_on": "dengue virus type 2", "test": "as §1, with “cells.” for “cells (cotreated with P-gp inhibitor, Elacridar).”", "assay_type": "organism-based, Chlorocebus sabaeus"}, "[6]": {"tested_on": "Zika virus", "test": "as §2, with “cells (cotreated with P-gp inhibitor, CP100356).” for “cells.”", "assay_type": "organism-based, Chlorocebus sabaeus, Vero C1008", "conditions": "Baseline response 0 %, Maximum response 100 %, P-gp inhibitor CP100356"}, "[7]": {"tested_on": "dengue virus type 2", "test": "Functional assay to measure dose dependent changes in antiviral-drug inhibitory efficacy against Dengue virus type 2 New Guinea C in Vero E6 miRFP670 cells (cotreated with P-gp inhibitor, CP100356). Cells are treated with antiviral candidates that are serially diluted, following infection, cells are fixed. EC50 is reported via analysis of fluorescence intensity using high-content imager. The …", "assay_type": "organism-based, Chlorocebus sabaeus, Vero C1008", "conditions": "Baseline response 0 %, P-gp concentration 500 nM, P-gp inhibitor CP100356"}},
  "note": "Values joined by “and” are separate entries in the source; they are usually repeats but may differ in a detail not shown here. Equal values may be shown once.",
  "data": [
    {"smiles": "C[C@@]1(O)[C@H](O)[C@@H](CO)O[C@H]1n1ccc2c(N)ncnc21", "note": "[BETA-2'-C-METHYL-7-DEAZA-ADENOSINE]", "values": [
      {"measurement": "EC90", "setting": "[1]; EC90 CI (lower) 0.301 uM, EC90 CI (upper) 7.202 uM, Hill slope -3.742, Maximum measured 131.957 %, Maximum response 100 %, Minimum measured 2.652 %, R squared 0.767", "value": 4.77, "unit": "µM"},
      {"measurement": "EC90", "setting": "[1]; Hill slope -0.425, Maximum measured 98.697 %, Maximum response 100 %, Minimum measured 17.927 %, R squared 0.629", "value": "> 10", "unit": "µM"},
      {"measurement": "EC90", "setting": "[1]; Hill slope -1.446, Maximum measured 54.457 %, Maximum response 40 %, Minimum measured 5.333 %, R squared 0.69", "value": "> 10", "unit": "µM"},
      {"measurement": "EC90", "setting": "[1]; Hill slope -2.191, Maximum measured 87.134 %, Maximum response 60 %, Minimum measured 12.691 %, R squared 0.704", "value": "> 10", "unit": "µM"},
      {"measurement": "EC90", "setting": "[2]; Baseline response 0 %, Hill slope -0.711, Maximum measured 113.708 %, Maximum response 100 %, Minimum measured 27.128 %, P-gp concentration 2 uM, R squared 0.834, P-gp inhibitor Elacidar", "value": "> 10", "unit": "µM"},
      {"measurement": "EC90", "setting": "[2]; Dengue virus, VeroE6/TMPRSS2", "value": "> 10", "unit": "µM"},
      {"measurement": "EC50", "setting": "[2]; veroe6/tmprss2", "value": "8.6 µM and 2.59 µM"},
      {"measurement": "EC90", "setting": "[3]; Baseline response 0 %, EC90 CI (lower) 15.507 uM, EC90 CI (upper) 28.219 uM, Hill slope 1.884, Maximum measured 104.267 %, Minimum measured 0.699 %, R squared 0.993", "value": 20.9, "unit": "µM"},
      {"measurement": "EC90", "setting": "[3]; Zika virus, Vero C1008, Baseline response 0 %, Hill slope 0.758, Maximum measured 14.246 %, Minimum measured -0.672 %, R squared 0.091", "value": "> 50", "unit": "µM"},
      {"measurement": "EC90", "setting": "[3]; Zika virus, Vero C1008, Baseline response 0 %, Hill slope 2.277, Maximum measured 74.443 %, Minimum measured -3.247 %, R squared 0.993", "value": "> 50", "unit": "µM"},
      {"measurement": "EC90", "setting": "[3]; Zika virus, Vero C1008, Baseline response 0 %, EC90 CI (lower) 6.665 uM, EC90 CI (upper) 20.693 uM, Hill slope 1.418, Maximum measured 92.41 %, Minimum measured 5.185 %, R squared 0.921", "value": 11.7, "unit": "µM"},
      {"measurement": "EC50", "setting": "[4]; VeroE6/TMPRSS2", "value": "> 10", "unit": "µM"},
      {"measurement": "EC90", "setting": "[4]; VeroE6/TMPRSS2, Baseline response 0 %, Hill slope -0.033, Maximum measured 93.578 %, Maximum response 100 %, Minimum measured 41.57 %, R squared 0.011", "value": "> 10", "unit": "µM"},
      {"measurement": "EC50", "setting": "[5]; VeroE6/TMPRSS2", "value": 0.045, "unit": "µM"},
      {"measurement": "EC90", "setting": "[5]; VeroE6/TMPRSS2, Baseline response 43.084 %, EC90 CI (lower) 0 uM, EC90 CI (upper) 0 uM, Hill slope -11.259, Maximum measured 119.711 %, Maximum response 115.226 %, Minimum measured 27.831 %, R squared 0.402", "value": 0.055, "unit": "µM"},
      {"measurement": "EC90", "setting": "[6]; EC90 CI (lower) 1.33 uM, EC90 CI (upper) 21.491 uM, Hill slope 2.016, Maximum measured 119.759 %, Minimum measured 49.499 %, P-gp concentration 500 nM, R squared 0.708", "value": 5.34, "unit": "µM"},
      {"measurement": "EC90", "setting": "[6]; EC90 CI (lower) 2.362 uM, EC90 CI (upper) 73.078 uM, Hill slope 2.992, Maximum measured 157.756 %, Minimum measured 1.417 %, P-gp concentration 500 nM, R squared 0.838", "value": 13.1, "unit": "µM"},
      {"measurement": "EC90", "setting": "[6]; EC90 CI (lower) 3.073 uM, EC90 CI (upper) 52.816 uM, Hill slope 2.304, Maximum measured 128.398 %, Minimum measured 15.752 %, P-gp concentration 500 nM, R squared 0.861", "value": 12.7, "unit": "µM"},
      {"measurement": "EC90", "setting": "[6]; EC90 CI (lower) 6.142 uM, EC90 CI (upper) 39.815 uM, Hill slope 2.116, Maximum measured 119.257 %, Minimum measured 3.222 %, P-gp concentration 500 nM, R squared 0.943", "value": 15.6, "unit": "µM"},
      {"measurement": "EC90", "setting": "[6]; EC90 CI (lower) 6.409 uM, EC90 CI (upper) 24.739 uM, Hill slope 3.129, Maximum measured 131.405 %, Minimum measured -2.605 %, P-gp concentration 500 nM, R squared 0.913", "value": 12.6, "unit": "µM"},
      {"measurement": "EC90", "setting": "[6]; EC90 CI (lower) 8.9 uM, EC90 CI (upper) 38.162 uM, Hill slope 2.016, Maximum measured 114.801 %, Minimum measured 5.397 %, P-gp concentration 500 nM, R squared 0.961", "value": 18.4, "unit": "µM"},
      {"measurement": "EC90", "setting": "[6]; EC90 CI (lower) 10.323 uM, EC90 CI (upper) 42.716 uM, Hill slope 1.659, Maximum measured 113.143 %, Minimum measured 4.385 %, P-gp concentration 100 nM, R squared 0.967", "value": 21, "unit": "µM"},
      {"measurement": "EC90", "setting": "[6]; EC90 CI (lower) 14.003 uM, EC90 CI (upper) 30.102 uM, Hill slope 3.316, Maximum measured 112.736 %, Minimum measured -6.737 %, P-gp concentration 500 nM, R squared 0.984", "value": 20.5, "unit": "µM"},
      {"measurement": "EC90", "setting": "[6]; EC90 CI (lower) 17.062 uM, EC90 CI (upper) 43.343 uM, Hill slope 2.491, Maximum measured 123.53 %, Minimum measured -2.699 %, P-gp concentration 500 nM, R squared 0.955", "value": 27.2, "unit": "µM"},
      {"measurement": "EC90", "setting": "[6]; EC90 CI (lower) 18.425 uM, EC90 CI (upper) 28.103 uM, Hill slope 2.492, Maximum measured 115.262 %, Minimum measured 4.379 %, P-gp concentration 500 nM, R squared 0.954", "value": 22.8, "unit": "µM"},
      {"measurement": "EC90", "setting": "[6]; EC90 CI (lower) 23.748 uM, EC90 CI (upper) 39.727 uM, Hill slope 2.255, Maximum measured 100.144 %, Minimum measured -8.11 %, P-gp concentration 500 nM, R squared 0.982", "value": 30.7, "unit": "µM"},
      {"measurement": "EC90", "setting": "[6]; EC90 CI (lower) 28.979 uM, EC90 CI (upper) 80.3 uM, Hill slope 3.379, Maximum measured 85.565 %, Minimum measured -8.762 %, P-gp concentration 500 nM, R squared 0.96", "value": 48.2, "unit": "µM"},
      {"measurement": "EC90", "setting": "[6]; Hill slope 1.338, Maximum measured 86.023 %, Minimum measured -1.473 %, P-gp concentration 500 nM, R squared 0.993", "value": "> 50", "unit": "µM"},
      {"measurement": "EC90", "setting": "[7]; EC90 CI (lower) 3.48 uM, EC90 CI (upper) 7.993 uM, Hill slope -1.843, Maximum measured 93.524 %, Maximum response 100 %, Minimum measured 0.518 %, R squared 0.959", "value": 57.2, "unit": "µM"},
      {"measurement": "EC90", "setting": "[7]; EC90 CI (lower) 4.11 uM, EC90 CI (upper) 8.283 uM, Hill slope -1.641, Maximum measured 89.89 %, Maximum response 100 %, Minimum measured 0.257 %, R squared 0.971", "value": 84.9, "unit": "µM"},
      {"measurement": "EC90", "setting": "[7]; EC90 CI (lower) 6.077 uM, EC90 CI (upper) 11.974 uM, Hill slope -2.703, Maximum measured 104.698 %, Maximum response 100 %, Minimum measured 1.385 %, R squared 0.989", "value": 43.4, "unit": "µM"},
      {"measurement": "EC90", "setting": "[7]; EC90 CI (lower) 9.48 uM, EC90 CI (upper) 152.006 uM, Hill slope -3.766, Maximum measured 162.932 %, Maximum response 100 %, Minimum measured 1.715 %, R squared 0.543", "value": 122, "unit": "µM"},
      {"measurement": "EC90", "setting": "[7]; EC90 CI (lower) 10.134 uM, EC90 CI (upper) 21.901 uM, Hill slope -2.086, Maximum measured 107.044 %, Maximum response 100 %, Minimum measured 0.795 %, R squared 0.961", "value": 122, "unit": "µM"},
      {"measurement": "EC90", "setting": "[7]; EC90 CI (lower) 13.312 uM, EC90 CI (upper) 68.915 uM, Hill slope -3.556, Maximum measured 71.93 %, Maximum response 65.616 %, Minimum measured 1.236 %, R squared 0.774", "value": 104, "unit": "µM"},
      {"measurement": "EC90", "setting": "[7]; EC90 CI (lower) 21.742 uM, EC90 CI (upper) 34.481 uM, Hill slope -3.397, Maximum measured 108.212 %, Maximum response 100 %, Minimum measured 0.235 %, R squared 0.983", "value": 99.8, "unit": "µM"}
    ]}
  ]
}
